Results published in US12234224B2, “Pyrimidine and pyridine amine compounds and usage thereof in disease treatment” (Epigen Biosciences, Inc., priority 2021, dated 2025).

Molecular target: T1, Recombinant human p70S6K kinase (Homo sapiens, UniProt P23443)
T1 construct: purchased ThermoFisher Scientific PV3815
Assay: S6K Enzymatic Inhibition Assay (HotSpot kinase assay; called S6K binding assay in Table 2)
Assay type: biochemical
Conditions: IC50 class
Protocol: Enzymatic activity was determined using a commercial HotSpot kinase assay. Recombinant human p70S6K kinase was purchased from ThermoFisher Scientific (cat #PV3815). The substrate S6K/RSK2 peptide 2 was synthesized at Genscript [Piscataway, NJ]. In brief, the substrate was prepared in the reaction buffer [20 mM Hepes (pH 7.5), 10 mM MgCl2, 1 mM EGTA, 0.02% Brij35, 0.02 mg/mL BSA, 0.1 mM Na3VO4, 2 mM DTT, 1% DMSO]. Testing compounds were dissolved in 100% DMSO and a serial dilution was conducted in DMSO. The kinase at final concentration of 3 nM was added into the substrate solution and gently mixed. Test compounds were delivered at the appropriate concentrations into the kinase reaction mixture by Echo550, and incubated for 20 minutes at room temperature. ^33P-ATP (Specific activity 10 μCi/μL) was added into the reaction mixture to initiate the reaction. Assay plates were incubated for 2 hours at room temperature. The radioactivity was detected by filter-binding method. Kinase activity data is expressed as the percent remaining kinase activity in test samples compared to vehicle (DMSO) reactions. IC50 curves were plotted and IC50 values were calculated using the GraphPad Prism 4 program based on a sigmoidal dose-response equation.

T1 sequence (P23443 whole entry): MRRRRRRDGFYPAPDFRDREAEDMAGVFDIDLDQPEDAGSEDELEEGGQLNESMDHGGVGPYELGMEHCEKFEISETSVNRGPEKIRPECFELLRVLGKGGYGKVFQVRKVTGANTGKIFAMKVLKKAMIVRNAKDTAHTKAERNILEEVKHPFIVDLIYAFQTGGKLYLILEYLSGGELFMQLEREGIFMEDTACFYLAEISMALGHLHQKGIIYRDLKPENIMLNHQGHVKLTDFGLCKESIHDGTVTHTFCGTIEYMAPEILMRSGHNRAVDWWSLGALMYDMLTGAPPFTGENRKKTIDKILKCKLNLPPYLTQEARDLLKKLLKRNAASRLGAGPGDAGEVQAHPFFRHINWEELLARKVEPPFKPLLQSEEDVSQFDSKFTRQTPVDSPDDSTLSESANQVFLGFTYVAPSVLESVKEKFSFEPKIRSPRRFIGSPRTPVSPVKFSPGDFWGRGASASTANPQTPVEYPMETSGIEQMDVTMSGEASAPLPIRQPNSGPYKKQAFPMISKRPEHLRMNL

Compound	IC50 [nM]
COc1ccc(-c2c(N)ncnc2-c2cnn(Cc3ccc(C(F)(F)F)cc3)c2)cc1Cl [Example 30, 5-(3-Chloro-4-methoxyphenyl)-6-(1-{[p-(trifluoromethyl)phenyl]methyl}-1H-pyrazol-4-yl)-4-pyrimidinylamine]	500 to 10000
Nc1ncnc(-c2cnn(Cc3ccc(C(F)(F)F)cc3)c2)c1-c1ccc(F)c(F)c1 [Example 31, 5-(3,4-Difluorophenyl)-6-(1-{[p-(trifluoromethyl)phenyl]methyl}-1H-pyrazol-4-yl)-4-pyrimidinylamine]	< 50
COc1ccc(-c2c(N)ncnc2-c2cnn(Cc3ccc(C(F)(F)F)cc3)c2)cc1F [Example 32, 5-(3-Fluoro-4-methoxyphenyl)-6-(1-{[p-(trifluoromethyl)phenyl]methyl}-1H-pyrazol-4-yl)-4-pyrimidinylamine]	< 50
COc1cc(-c2c(N)ncnc2-c2cnn(Cc3ccc(C(F)(F)F)cc3)c2)ccc1F [Example 33, 5-(4-Fluoro-3-methoxyphenyl)-6-(1-{[p-(trifluoromethyl)phenyl]methyl}-1H-pyrazol-4-yl)-4-pyrimidinylamine]	500 to 10000
Nc1ncnc(-c2cnn(Cc3ccc(C(F)(F)F)cc3)c2)c1-c1ccc(OC(F)(F)F)cc1 [Example 34, 5-(p-Trifluoromethoxyphenyl)-6-(1-{[p-(trifluoromethyl)phenyl]methyl}-1H-pyrazol-4-yl)-4-pyrimidinylamine]	500 to 10000
Nc1ncnc(-c2cnn(Cc3ccc(C(F)(F)F)cc3)c2)c1-c1ccc2c(c1)OC(F)(F)O2 [Example 35, 5-(2,2-Difluoro-2H-1,3-benzodioxol-5-yl)-6-(1-{[p-(trifluoromethyl)phenyl]methyl}-1H-pyrazol-4-yl)-4-pyrimidinylamine]	500 to 10000
Nc1cc(-c2cnn(Cc3ccc(C(F)(F)F)cc3)c2)ccn1 [Example 36, 4-(1-{[p-(Trifluoromethyl)phenyl]methyl}-1H-pyrazol-4-yl)-2-pyridylamine]	500 to 10000
Nc1cc(-c2cnn(Cc3ccc(C(F)(F)F)cc3)c2)c(Cl)cn1 [Example 37, 5-Chloro-4-(1-{[p-(trifluoromethyl)phenyl]methyl}-1H-pyrazol-4-yl)-2-pyridylamine]	500 to 10000
COc1ccc(-c2c(-c3cnn(Cc4ccc(C(F)(F)F)cc4)c3)ccnc2N)cc1 [Example 38, 3-(p-Methoxyphenyl)-4-(1-{[p-(trifluoromethyl)phenyl]methyl}-1H-pyrazol-4-yl)-2-pyridylamine]	< 50
Nc1nccc(-c2cnn(Cc3ccc(C(F)(F)F)cc3)c2)c1-c1ccc(Cl)cc1 [Example 39, 3-(p-Chlorophenyl)-4-(1-{[p-(trifluoromethyl)phenyl]methyl}-1H-pyrazol-4-yl)-2-pyridylamine]	< 50
